# Measured values taken from patent publication US8802597B2, “Herbicidal pyrimidines” (E I du Pont de Nemours and Company, priority 2003, dated 2014).
# Experiments:
# Experiment in all cases: Test C pre/postemergence
# Format in all cases: in vivo
# [1] = test system: Surinam grass (Brachiaria decumbens); conditions: for Plant response rating (scale of 0 to 100), Surinam Grass: Postemergence; for Plant response rating, Surinam Grass: Preemergence, scale 0 to 100, 0 no effect, 100 complete control
# Method in brief: (§1)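 Seeds sown and sprayed preemergence with test compound in non-phytotoxic solvent containing surfactant; postemergence sprays, same formulation, went onto plants 2 to 18 cm tall (1- to 4-leaf stage). Plants held in greenhouse 12 to 14 days, then visually rated against untreated controls on a 0–100 scale (0 no effect, 100 complete control).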
# [2] = test system: cocklebur (Xanthium strumarium); conditions: for Plant response rating, Cocklebur: Preemergence
# Method in brief: as §1
# [3] = test system: common (oilseed) sunflower (Helianthus annuus); conditions: Preemergence, scale 0 to 100, 0 no effect, 100 complete control
# Method in brief: as §1
# [4] = test system: crabgrass (Digitaria sanguinalis); conditions: for Plant response rating, Crabgrass: Preemergence
# Method in brief: as §1
# [5] = test system: giant foxtail (Setaria faberii); conditions: for Plant response rating, Foxtail, Giant: Preemergence
# Method in brief: as §1
# [6] = test system: johnsongrass (Sorghum halepense); conditions: for Plant response rating, Johnsongrass: Preemergence
# Method in brief: as §1
# kochia (Kochia scoparia) = conditions: for Plant response rating, Kochia: Preemergence
# Method in brief: as §1
# [7] = test system: morningglory (Ipomoea coccinea); conditions: for Plant response rating, Morningglory: Preemergence
# Method in brief: as §1
# [8] = test system: pigweed (Amaranthus retroflexus); conditions: for Plant response rating, Pigweed: Preemergence, scale 0 to 100, 0 no effect, 100 complete control
# Method in brief: as §1
# [9] = test system: velvetleaf (Abutilon theophrasti); conditions: for Plant response rating, Velvetleaf: Preemergence, scale 0 to 100, 0 no effect, 100 complete control
# Method in brief: as §1
# [10] = test system: woolly cupgrass (Eriochloa villosa); conditions: for Plant response rating, Cupgrass, Woolly: Preemergence
# Method in brief: as §1
# [11] = test system: yellow nutsedge (Cyperus esculentus); conditions: for Plant response rating, Nutsedge, Yellow: Preemergence, scale 0 to 100, 0 no effect, 100 complete control
# Method in brief: as §1
# [12] = Postemergence, 125 g ai/ha, scale 0 to 100 (0 no effect, 100 complete control)
# [13] = 16 g ai/ha, scale 0 to 100, 0 no effect, 100 complete control
# [14] = 31 g ai/ha, scale 0 to 100, 0 no effect, 100 complete control
# [15] = 62 g ai/ha, scale 0 to 100, 0 no effect, 100 complete control
structure (smiles),measurement,setting,value
CCCCOC(=O)c1nc(C2CC2)nc(N)c1Cl [Compound 76],"Plant response rating (scale of 0 to 100), Surinam Grass",[1]; 16 g ai/ha,60
same,"Plant response rating (scale of 0 to 100), Surinam Grass",[1]; 31 g ai/ha,70
same,"Plant response rating (scale of 0 to 100), Surinam Grass",[1]; 62 g ai/ha,95
same,"Plant response rating, Surinam Grass",[1]; 16 g ai/ha,0
same,"Plant response rating, Surinam Grass",[1]; 31 g ai/ha,0
same,"Plant response rating, Surinam Grass",[1]; 62 g ai/ha,0
same,"Plant response rating (scale of 0 to 100), Cocklebur","[2]; Postemergence, 16 g ai/ha",100
same,"Plant response rating (scale of 0 to 100), Cocklebur","[2]; Postemergence, 31 g ai/ha",100
same,"Plant response rating (scale of 0 to 100), Cocklebur","[2]; Postemergence, 62 g ai/ha",100
same,Cocklebur plant response rating,[2]; [12],100
same,"Plant response rating, Cocklebur",[2]; [13],65
same,"Plant response rating, Cocklebur",[2]; [14],90
same,"Plant response rating, Cocklebur",[2]; [15],90
same,"Plant response rating, Cocklebur","[2]; 125 g ai/ha, scale 0 to 100",90
same,"Plant response rating, Sunflower",[3]; 16 g ai/ha,50
same,"Plant response rating, Sunflower",[3]; 31 g ai/ha,85
same,"Plant response rating, Sunflower",[3]; 62 g ai/ha,100
same,"Plant response rating (scale of 0 to 100), Crabgrass","[4]; Postemergence, 16 g ai/ha",55
same,"Plant response rating (scale of 0 to 100), Crabgrass","[4]; Postemergence, 31 g ai/ha",75
same,"Plant response rating (scale of 0 to 100), Crabgrass","[4]; Postemergence, 62 g ai/ha",85
same,Crabgrass plant response rating,[4]; [12],90
same,"Plant response rating, Crabgrass",[4]; [13],0
same,"Plant response rating, Crabgrass",[4]; [14],0
same,"Plant response rating, Crabgrass",[4]; [15],5
same,"Plant response rating, Crabgrass","[4]; 125 g ai/ha, scale 0 to 100",60
same,"Plant response rating (scale of 0 to 100), Foxtail, Giant","[5]; Postemergence, 16 g ai/ha",15
same,"Plant response rating (scale of 0 to 100), Foxtail, Giant","[5]; Postemergence, 31 g ai/ha",25
same,"Plant response rating (scale of 0 to 100), Foxtail, Giant","[5]; Postemergence, 62 g ai/ha",55
same,"Foxtail, Giant plant response rating",[5]; [12],85
same,"Plant response rating, Foxtail, Giant",[5]; [13],0
same,"Plant response rating, Foxtail, Giant",[5]; [14],0
same,"Plant response rating, Foxtail, Giant",[5]; [15],0
same,"Plant response rating, Foxtail, Giant","[5]; 125 g ai/ha, scale 0 to 100",10
same,"Plant response rating (scale of 0 to 100), Johnsongrass","[6]; Postemergence, 16 g ai/ha",25
same,"Plant response rating (scale of 0 to 100), Johnsongrass","[6]; Postemergence, 31 g ai/ha",65
same,Johnsongrass plant response rating,[6]; [12],95
same,"Plant response rating, Johnsongrass",[6]; [13],0
same,"Plant response rating, Johnsongrass",[6]; [14],0
same,"Plant response rating, Johnsongrass",[6]; [15],20
same,"Plant response rating, Johnsongrass","[6]; 125 g ai/ha, scale 0 to 100",50
same,"Plant response rating (scale of 0 to 100), Kochia","kochia (Kochia scoparia); Postemergence, 16 g ai/ha",90
same,"Plant response rating (scale of 0 to 100), Kochia","kochia (Kochia scoparia); Postemergence, 31 g ai/ha",95
same,"Plant response rating (scale of 0 to 100), Kochia","kochia (Kochia scoparia); Postemergence, 62 g ai/ha",95
same,Kochia plant response rating,kochia (Kochia scoparia); [12],100
same,"Plant response rating, Kochia",kochia (Kochia scoparia); [13],70
same,"Plant response rating, Kochia",kochia (Kochia scoparia); [14],90
same,"Plant response rating, Kochia",kochia (Kochia scoparia); [15],95
same,"Plant response rating, Kochia","kochia (Kochia scoparia); 125 g ai/ha, scale 0 to 100",100
same,"Plant response rating (scale of 0 to 100), Morningglory","[7]; Postemergence, 16 g ai/ha",95
same,"Plant response rating (scale of 0 to 100), Morningglory","[7]; Postemergence, 31 g ai/ha",95
same,"Plant response rating (scale of 0 to 100), Morningglory","[7]; Postemergence, 62 g ai/ha",95
same,Morningglory plant response rating,[7]; [12],100
same,"Plant response rating, Morningglory",[7]; [13],40
same,"Plant response rating, Morningglory",[7]; [14],60
same,"Plant response rating, Morningglory",[7]; [15],100
same,"Plant response rating, Morningglory","[7]; 125 g ai/ha, scale 0 to 100",100
same,"Plant response rating (scale of 0 to 100), Pigweed","[8]; Postemergence, 16 g ai/ha",85
same,"Plant response rating (scale of 0 to 100), Pigweed","[8]; Postemergence, 31 g ai/ha",95
same,"Plant response rating (scale of 0 to 100), Pigweed","[8]; Postemergence, 62 g ai/ha",100
same,Pigweed plant response rating,[8]; [12],100
same,"Plant response rating, Pigweed",[8]; 16 g ai/ha,60
same,"Plant response rating, Pigweed",[8]; 31 g ai/ha,80
same,"Plant response rating, Pigweed",[8]; 62 g ai/ha,80
same,"Plant response rating (scale of 0 to 100), Velvetleaf","[9]; Postemergence, 16 g ai/ha",45
same,"Plant response rating (scale of 0 to 100), Velvetleaf","[9]; Postemergence, 31 g ai/ha",80
same,"Plant response rating (scale of 0 to 100), Velvetleaf","[9]; Postemergence, 62 g ai/ha",95
same,Velvetleaf plant response rating,[9]; [12],95
same,"Plant response rating, Velvetleaf",[9]; 16 g ai/ha,30
same,"Plant response rating, Velvetleaf",[9]; 31 g ai/ha,40
same,"Plant response rating, Velvetleaf",[9]; 62 g ai/ha,70
same,"Plant response rating (scale of 0 to 100), Cupgrass, Woolly","[10]; Postemergence, 16 g ai/ha",55
same,"Plant response rating (scale of 0 to 100), Cupgrass, Woolly","[10]; Postemergence, 31 g ai/ha",60
same,"Plant response rating (scale of 0 to 100), Cupgrass, Woolly","[10]; Postemergence, 62 g ai/ha",80
same,"Cupgrass, Woolly plant response rating",[10]; [12],95
same,"Plant response rating, Cupgrass, Woolly",[10]; [13],0
same,"Plant response rating, Cupgrass, Woolly",[10]; [14],0
same,"Plant response rating, Cupgrass, Woolly",[10]; [15],20
same,"Plant response rating, Cupgrass, Woolly","[10]; 125 g ai/ha, scale 0 to 100",50
same,"Plant response rating (scale of 0 to 100), Nutsedge, Yellow","[11]; Postemergence, 16 g ai/ha",10
same,"Plant response rating (scale of 0 to 100), Nutsedge, Yellow","[11]; Postemergence, 31 g ai/ha",30
same,"Plant response rating (scale of 0 to 100), Nutsedge, Yellow","[11]; Postemergence, 62 g ai/ha",40
same,"Nutsedge, Yellow plant response rating",[11]; [12],60
same,"Plant response rating, Nutsedge, Yellow",[11]; 16 g ai/ha,0
same,"Plant response rating, Nutsedge, Yellow",[11]; 31 g ai/ha,0
same,"Plant response rating, Nutsedge, Yellow",[11]; 62 g ai/ha,0
